Consider one compound from patent publication EP3236920B1, “ANTIMICROBIAL PREPARATION COMPRISING BISPYRIDINIUM ALKANES, 1- OR 2-(C1 TO C24 ALKYL) GLYCEROL ETHER AND ALKANE-1,2-DIOLS” (Beiersdorf AG, priority 2014, dated 2016).

The test system of test [1] is Propionibakterium acnes. Kind of test: Suspension test, antimicrobial efficacy (reduction factor of cell count vs control). Type of test: cell-based, P. acnes (DSM 1897). To be noted: after 24h at 37°C, anaerobic medium; cfu(Kontrolle)/cfu(Testsubstanz); A: 0,2 µg/ml TPI 2007; B: 250 µg/ml Decan-1,2-diol; C: 250 µg/ml Decan-1,2-diol + 0,2 µg/ml TPI 2007. Here is the method:
Die antimikrobielle Wirksamkeit der erfindungsgemäßen dermatologischen und/oder kosmetischen Zubereitung gegen Propionibakterium acnes (P. acnes) wurde zum Vergleich mit verschiedenen Formulierungen untersucht.
Dazu wurde das Bakterium P. acnes (DSM 1897) aus einem nach EN 12353 angelegten Cryoröhrchen auf einer entsprechenden Agarplatte (Cost-Agar) ausgestrichen und bei 37°C 5 Tage unter anaeroben Bedingungen bebrütet.
Eine Impföse der Bakterien wurde zu 10mL anaerobem Medium gegeben und im Impedanzgerät mit dem Programm PR37NT unter anaeroben Bedingungen inkubiert. Anschließend wurde diese Bakteriensuspension auf eine OD (optische Dichte) von 0,3-0,5 eingestellt. Die eingestellte Bakteriensuspension wurde dann 1:10 mit anaerobem Medium verdünnt, um eine Keimzahl von ungefähr 5*10^6 zu gewährleisten. Diese Bakteriensuspension wurde anschließend für den Test eingesetzt.
Der Suspensionstest wurde per Hand durchgeführt. Hierzu wurden 500µL der zu testenden Wirkstofflösungen bzw. im Falle der Kontrollen 500 µl anaerobem Medium in Mikroreaktionsgefäßen vorgelegt. Anschließend wurden 500 µl der Bakteriensuspension hinzugegeben und gemischt. Zum Zeitpunkt t0 wurde eine Probe aus den Kontrollen entnommen. Die Mikroreaktionsgefäße wurden nun im Thermoschüttler bei 37 °C inkubiert. […]

Test [2] concerns Propionibakterium acnes. To be noted: 0,2% Decan-1,2-diol alone; cited from earlier work.

The structures appear in SMILES notation.

Regarding `CCCCCCCCC(O)CO` (centres unmarked) [Probe B, Decan-1,2-diol], in the test with Propionibakterium acnes [1], the Reduktionsfaktor came to 1. Also, the “antibakterielle Wirkung im Suspensionstest” value in the test with Propionibakterium acnes [2] is reported as “so gut wie keine antibakterielle Wirkung”.
